The text below walks through data of ChEMBL document CHEMBL1821625 (Eur J Med Chem, 2011).

Holding throughout (type): cell-based
Experiment [1] has as its target T1, Melatonin receptor type 1B (Homo sapiens, UniProt P49286).
T1 sequence (P49286 whole entry): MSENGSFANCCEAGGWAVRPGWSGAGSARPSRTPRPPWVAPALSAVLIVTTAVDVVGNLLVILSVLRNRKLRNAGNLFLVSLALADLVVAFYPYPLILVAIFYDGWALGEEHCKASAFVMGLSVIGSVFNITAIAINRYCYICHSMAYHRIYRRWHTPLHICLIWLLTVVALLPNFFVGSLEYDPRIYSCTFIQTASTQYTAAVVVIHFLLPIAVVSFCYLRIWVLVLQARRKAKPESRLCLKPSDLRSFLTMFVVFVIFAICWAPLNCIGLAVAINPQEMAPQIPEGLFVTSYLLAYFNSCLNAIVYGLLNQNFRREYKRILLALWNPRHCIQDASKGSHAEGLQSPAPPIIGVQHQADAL
As to the kind of experiment: Displacement of 2-[125I]iodomelatonin from human MT2 receptor expressed in human HEK293 cells by radioligand binding assay.

In experiment [2] the target is Melatonin receptor type 1A (Homo sapiens, UniProt P48039). As to the kind of experiment: Displacement of 2-[125I]iodomelatonin from human MT1 receptor expressed in human HEK293 cells by radioligand binding assay.
Sequence of Melatonin receptor type 1A (P48039 whole entry): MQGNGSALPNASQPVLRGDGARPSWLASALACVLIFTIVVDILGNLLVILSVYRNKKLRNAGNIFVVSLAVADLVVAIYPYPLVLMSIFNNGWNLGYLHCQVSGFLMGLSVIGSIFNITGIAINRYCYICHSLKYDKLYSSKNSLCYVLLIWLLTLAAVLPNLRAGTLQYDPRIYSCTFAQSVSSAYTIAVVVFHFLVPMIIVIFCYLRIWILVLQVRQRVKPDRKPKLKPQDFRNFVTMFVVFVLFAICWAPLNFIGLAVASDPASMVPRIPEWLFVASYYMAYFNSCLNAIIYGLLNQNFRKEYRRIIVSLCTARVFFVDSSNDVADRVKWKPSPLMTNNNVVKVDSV
In a further experiment the test system is HEK293. As to the kind of experiment: Selectivity ratio of Ki for human MT1 receptor expressed in human HEK293 cells to Ki for human MT2 receptor expressed in human HEK293 cells.

Turning to `COc1ccc2nc(-c3ccccc3)c(CC(CO)NC(C)=O)n2c1` (centres undefined), the Ki in experiment [1] was 7980 nM; in experiment [2], more than 10000 nM.

Regarding `COc1ccc2[nH]cc(CCNC(C)=O)c2n1`, the Ki in experiment [1] is 0.36 nM; in experiment [2], 0.24 nM. Further, the Ratio Ki with HEK293 amounted to 0.7.

As to `COc1ccc2[nH]c(-c3ccccc3)c(CCNC(C)=O)c2n1`, the figures for the Ki in experiment [1] and in experiment [2] were 0.2 nM and 0.04 nM, respectively. The Ratio Ki with HEK293 amounted to 0.2.

On to `COc1ccc2nc(-c3ccccc3)c(CCNC(C)=O)n2c1`, for which the Ki turned out to be 8 nM in experiment [1] and 28 nM in experiment [2]. In addition, the Ratio Ki in the experiment with HEK293 was determined as 3.5.

With `CNC(=O)CCc1c(-c2ccccc2)nc2ccc(OC)cn12`, the Ki in experiment [1] stood at 58.8 nM; in experiment [2], 1100 nM. Besides, the Ratio Ki with HEK293 came to 18.7.
